# Where a name gives a salt, the structure may show the parent alone.
# Key:
# [1] = test system: KB-3 (sensitive cells); test: Drug accumulation assay ([3H]-vinblastine), sensitive cells; type: cell-based, human; conditions: KB-3, 20 μM NCO-700 + vinblastine
# Description: (§1) 1. Drug Accumulation Assays
# (§2) where the effect of NCO-700 on the uptake of radioactive (^3 H)-vinblastine, an anticancer drug, is measured in cultured cancer cells, that are both drug-resistant and drug-sensitive (Reference 3).
# (§3) In the first two in vitro assays, the drug accumulation assay and the cell survival assay, a human pharyngeal carcinoma cell line (KB-V-1) which is highly resistant to anticancer drugs was used. This cell line was developed by Drs. Ira Pastan and Michael Gottesman of the National Cancer Institute, by step-wise selection in colchicine of drug-resistant cells. The control cancer cell line (KB-3), from which the resistant cell lines were derived, is sensitive to anticancer drugs. The resistant KB-V-1 cell line is approximately 275 times more resistant to vinblastine than the sensitive KB-3 line and has a greatly amplified mdr gene which generates the observed resistance.
# Measurement of [^3 H]-vinblastine accumulation was performed by the methods developed in the laboratory of Drs. Gottesman and Pastan (Fojo et al., Cancer Res. 45:3002-3007, 1985). […] After an additional 30 min, the medium was removed, the plates were washed three times in ice-cold phosphate-buffered saline, the cells were detached with trypsin, and radioactivity determined by scintillation counting.
# [2] = test system: ovarian cancer cell lines SW-626 and AN-3-CA; test: Cancer cell death assay (LDH release), ovarian lines; type: cell-based, human; conditions: compound alone, 24 hours
# Description: FIG. 1 is a graph showing the relationship between LDH released and the concentration of NCO-700 in cancer cell death assays of human ovarian cancer cell lines SW-626 and AN-3-CA.
# 1. Cancer Cell Death Assay
# Cell death was measured quantitatively by the release of a marker intracellular enzyme, lactate dehydrogenase (LDH), from damaged or killed cells. LDH released into the extracellular fluid, was measured 24 hours after drug exposure to cancer cells and the enzyme activity was determined by the method of Decker et al. (J. Immunolog Methods 15:61-99, 1988).
# All cell lines used in the present study were obtained from the American Type Tissue Culture Laboratory and cultured according to their specifications. All were human cancer lines unless otherwise noted. The following cell lines and their tissue of origin used in our studies were:
# The first assays performed measured the anti-neoplastic activity of NCO-700, alone, in cell death assays of a wide variety of human cancer cells. The results of these experiments are shown in FIGS. 1-6, where a dose-response curve of NCO-700 versus % LDH release is plotted, with higher values of LDH released indicating greater anti-neoplastic activity (apoptosis).
# [3] = test system: KB-V-1 (resistant cells); test: Drug accumulation assay ([3H]-vinblastine), resistant cells; type: cell-based, human; conditions: KB-V-1, 20 μM NCO-700 + vinblastine
# Description: as §1, §2
# as §3, with “drugs.” for “drugs. The resistant KB-V-1 cell line is approximately 275 times more resistant to vinblastine than the sensitive KB-3 line and has a greatly amplified mdr gene which generates the observed resistance.”
# Measurement of [^3 H]-vinblastine accumulation was performed by the methods developed in the laboratory of Drs. […] In this method, KB-V-1 and KB-3 cells were plated in 10% fetal bovine serum at a density of 3×10^5 cells per well in 24-well Costar plates. The next day, the growth medium was replaced with Dulbecco's modified Eagle's medium with or without (control cells) 20 μM NCO-700. After ten minutes, the medium was removed and replaced with assay medium (0.5 ml) containing 0.1 μCi, (13 pmol) [^3 H]-vinblastine in the presence or absence of 20 μM NCO-700. After an additional 30 min, the medium was removed, the plates were washed three times in ice-cold phosphate-buffered saline, the cells were detached with trypsin, and radioactivity determined by scintillation counting.
# [4] = test system: KB-3 (sensitive); test: Cell survival assay with vinblastine, sensitive cells; type: cell-based, human
# Description: where the effect of NCO-700 to enhance cancer cell killing by vinblastine was measured.
# as §3
# The cell survival experiments shown above were performed by plating KB-3 (sensitive) and KB-V-1 (resistant) cells in 32 mm well plastic dishes at a cell density of 300-500 cells per well. Vinblastine and NCO-700 were added 16 hours after the initial cell plating. After 10 days of incubation at 37°, cell colonies were stained and counted.
# [5] = test system: breast cancer tumor cells from patients; test: Human tumor biopsy assay (tumor cloning system), breast tumors; type: cell-based; conditions: 20 μM NCO-700, two breast tumors
# Description: 4. Human Tumor Biopsy Assays
# where the effect of NCO-700 to enhance killing, by either vinblastine or adriamycin, of cancer cells cultured directly from patient's tumors (Von Hoff et al., Cancer Res. 43:1926-1931, 1983).
# For the tumor biopsy assay, primary cell cultures were propagated directly from tumor specimens removed from patients. The cells were grown in suspension culture, treated with adriamycin or vinblastine plus NCO-700, and plated onto soft agar and incubated for two weeks before cell survival was determined.
# In a final series of experiments, the effect of NCO-700 on survival of cells cultured directly from biopsied patient tumors was performed. This technique, referred to as a human tumor cloning system, was developed by Von Hoff and associates (Von Hoff et al., Cancer Res. 43:1926-1931, 1983) and was used clinically to predict the course of chemotherapy for these patients. In this method, tumor biopsies were separated into cell suspensions and treated for 1 hour with either 0.4 mg/ml vinblastine (VLB) or 0.5 mg/ml adriamycin (ADR) plus or minus 20 μM NCO-700. The cell suspensions were washed after one hour of incubation and plated with soft agar. After 14 days of incubation at 37°, the percent of colonies surviving was scored. […] In particular, the survival of tumor cells decreased to approximately 1/2 to 1/3 after exposure to NCO-700 and adriamycin. […]
smiles,measurement,setting,value
"CCOC(=O)[C@@H]1O[C@H]1C(=O)N[C@@H](CC(C)C)C(=O)N1CCN(Cc2ccc(OC)c(OC)c2OC)CC1 [NCO-700, Bis[ethyl (2R,3R)-3-[(S)-3-methyl-1-[4-(2,3,4-trimethoxyphenylmethyl)piperazin-1-ylcarbonyl]butylcarbamoyl]oxirane-2-carboxylate] Sulfate]",vinblastine accumulation,[1],3.17 ± 0.09 pmole vinblastine/mg protein
same,anti-neoplastic activity (LDH release),[2],partly responsive
same,vinblastine accumulation,[3],1.56 ± 0.03 pmole vinblastine/mg protein
same,IC50,"[4]; Homo sapiens, KB-3, + 25 μM NCO-700, read-out: vinblastine to kill 50% of cells",1.6 ng/mL
same,enhancement of killing by vinblastine,[4]; sensitive KB-3 cells,slight enhancement of the killing of sensitive KB-3 cells
same,sensitization of tumor cells to adriamycin and vinblastine,[5],significantly sensitized these tumor cells to the actions of adriamycin (ADR) and vinblastine (VLB)
